From patent US20170354148A1, “SAFENED HERBICIDAL COMPOSITIONS CONTAINING HALAUXIFEN AND METHODS OF USE THEREOF IN BRASSICA SPECIES” (Dow AgroSciences LLC, priority 2016, published 2017)

Key:
[1] = tested on: Spring Argentine canola (Brassica napus, BRSNS); assay: Example 3 field trials (Canada), postemergence crop safety, visual phytotoxicity
[2] = tested on: rutabaga (Brassica napus var. napobrassica, BRSNA); assay: Example 5 greenhouse trials, postemergence visual injury; settings: BRSNA, 20-22 d
[3] = tested on: winter oilseed rape (Brassica napus, BRSNW); assay: Example 4 field trials (Europe), postemergence crop safety, visual phytotoxicity; settings: for Mean % Visual Injury / Mean % Visual Deformation: alone or mixed

O=C(O)c1nc(Cl)ccc1Cl [Clopyralid-olamine, 2-hydroxyethanaminium 3,6-dichloro-2-pyridinecarboxylate]
Mean % Visual Injury ([1]; Table 24, 17DAAA, halauxifen-methyl 5, clopyralid-olamine 150 g ae/ha alone, or both mixed with isoxadifen-ethyl 20 g ae/ha): 1.0%
Mean % Visual Injury ([1]; Table 24, 32DAAA, halauxifen-methyl 5, clopyralid-olamine 150 g ae/ha alone, or both mixed with isoxadifen-ethyl 20 g ae/ha): 2.0%
Mean % Visual Injury ([1]; Table 24, 49DAAA, halauxifen-methyl 5, clopyralid-olamine 150 g ae/ha alone, or both mixed with isoxadifen-ethyl 20 g ae/ha): 0.8%
Mean % Visual Injury ([1]; Table 28, 7DAAA, halauxifen-methyl 5, clopyralid-olamine 150, quinclorac 101 g ae/ha, alone or mixed): 2.0%
Mean % Visual Injury ([1]; Table 28, 17DAAA, halauxifen-methyl 5, clopyralid-olamine 150, quinclorac 101 g ae/ha, alone or mixed): 1.0%
Mean % Visual Injury ([1]; Table 28, 32DAAA, halauxifen-methyl 5, clopyralid-olamine 150, quinclorac 101 g ae/ha, alone or mixed): 2.0%
Mean % Visual Injury ([1]; Table 28, 49DAAA, halauxifen-methyl 5, clopyralid-olamine 150, quinclorac 101 g ae/ha, alone or mixed): 0.8%
Mean % Visual Growth Inhibition ([1]; Trial 1, 16DAA1, halauxifen-methyl 2.5, clopyralid-olamine 150 g ae/ha, alone or mixed): 5.5%
Mean % Visual Growth Inhibition ([1]; Trial 1, 30DAA1, halauxifen-methyl 2.5, clopyralid-olamine 150 g ae/ha, alone or mixed): 6.3%
Mean % Visual Growth Inhibition ([1]; Trial 1, 58DAA1, halauxifen-methyl 2.5, clopyralid-olamine 150 g ae/ha, alone or mixed): 2.8%
Mean % Visual Growth Inhibition ([1]; Trial 2, 32DAA1, halauxifen-methyl 0.62, clopyralid-olamine 150 g ae/ha, alone or mixed): 2.8%
Mean % Visual Growth Inhibition ([1]; Trial 2, 32DAA1, halauxifen-methyl 1.25, clopyralid-olamine 150 g ae/ha, alone or mixed): 2.8%
Mean % Visual Growth Inhibition ([1]; Trial 2, 32DAA1, halauxifen-methyl 2.5, clopyralid-olamine 150 g ae/ha, alone or mixed): 2.8%
Mean % Visual Growth Inhibition ([1]; Trial 2, 49DAA1, halauxifen-methyl 0.62, clopyralid-olamine 150 g ae/ha, alone or mixed): 2.8%
Mean % Visual Growth Inhibition ([1]; Trial 2, 49DAA1, halauxifen-methyl 1.25, clopyralid-olamine 150 g ae/ha, alone or mixed): 2.8%
Mean % Visual Growth Inhibition ([1]; Trial 2, 49DAA1, halauxifen-methyl 2.5, clopyralid-olamine 150 g ae/ha, alone or mixed): 2.8%
Mean % Visual Growth Inhibition ([1]; Trial 3, 8DAA1, halauxifen-methyl 5, clopyralid-olamine 150 g ae/ha, alone or mixed, line r23): 0.8%
Mean % Visual Growth Inhibition ([1]; Trial 3, 8DAA1, halauxifen-methyl 5, clopyralid-olamine 150 g ae/ha, alone or mixed, line r25): 0.3%
Mean % Visual Growth Inhibition ([1]; Trial 3, 8DAA1, halauxifen-methyl 10, clopyralid-olamine 150 g ae/ha, alone or mixed, line r22): 0.8%
Mean % Visual Growth Inhibition ([1]; Trial 3, 8DAA1, halauxifen-methyl 10, clopyralid-olamine 150 g ae/ha, alone or mixed, line r24): 0.3%
Mean % Visual Growth Inhibition ([1]; Trial 3, 17DAA1, halauxifen-methyl 5, clopyralid-olamine 150 g ae/ha, alone or mixed, line r27): 1.0%
Mean % Visual Growth Inhibition ([1]; Trial 3, 17DAA1, halauxifen-methyl 5, clopyralid-olamine 150 g ae/ha, alone or mixed, line r29): 1.3%
Mean % Visual Growth Inhibition ([1]; Trial 3, 17DAA1, halauxifen-methyl 10, clopyralid-olamine 150 g ae/ha, alone or mixed, line r26): 1.0%
Mean % Visual Growth Inhibition ([1]; Trial 3, 17DAA1, halauxifen-methyl 10, clopyralid-olamine 150 g ae/ha, alone or mixed, line r28): 1.3%
Mean % Visual Growth Inhibition ([1]; Trial 3, 35DAA1, halauxifen-methyl 10, clopyralid-olamine 150 g ae/ha, alone or mixed): 0.8%
Mean % Visual Growth Inhibition ([1]; Trial 3, 48DAA1, halauxifen-methyl 5, clopyralid-olamine 150 g ae/ha, alone or mixed, line r31): 2.0%
Mean % Visual Growth Inhibition ([1]; Trial 3, 48DAA1, halauxifen-methyl 5, clopyralid-olamine 150 g ae/ha, alone or mixed, line r32): 0.8%
Mean % Visual Growth Inhibition ([1]; Trial 4, 13DAA1, halauxifen-methyl 10, clopyralid-olamine 150 g ae/ha, alone or mixed, line r33): 0.0%
Mean % Visual Growth Inhibition ([1]; Trial 4, 13DAA1, halauxifen-methyl 10, clopyralid-olamine 150 g ae/ha, alone or mixed, line r34): 0.0%
Mean % Visual Growth Inhibition ([1]; Trial 5, 7DAA1, halauxifen-methyl 0.62, clopyralid-olamine 150 g ae/ha, alone or mixed): 1.3%
Mean % Visual Growth Inhibition ([1]; Trial 5, 7DAA1, halauxifen-methyl 1.25, clopyralid-olamine 150 g ae/ha, alone or mixed): 1.3%
Mean % Visual Growth Inhibition ([1]; Trial 5, 7DAA1, halauxifen-methyl 2.5, clopyralid-olamine 150 g ae/ha, alone or mixed): 1.3%
Mean % Visual Growth Inhibition ([1]; Trial 5, 7DAA1, halauxifen-methyl 5, clopyralid-olamine 150 g ae/ha, alone or mixed): 1.3%
Mean % Visual Growth Inhibition ([1]; Trial 6, 33DAA1, halauxifen-methyl 5, clopyralid-olamine 150 g ae/ha, alone or mixed): 0.5%
Mean % Visual Growth Inhibition ([1]; Trial 7, 8DAA1, halauxifen-methyl 5, clopyralid-olamine 150 g ae/ha, alone or mixed): 1.5%
Mean % Visual Growth Inhibition ([1]; Trial 7, 15DAA1, halauxifen-methyl 0.62, clopyralid-olamine 150 g ae/ha, alone or mixed): 1.0%
Mean % Visual Growth Inhibition ([1]; Trial 7, 15DAA1, halauxifen-methyl 5, clopyralid-olamine 150 g ae/ha, alone or mixed): 1.0%
Mean % Visual Growth Inhibition ([1]; Trial 8, 7DAA1, halauxifen-methyl 5, clopyralid-olamine 150 g ae/ha, alone or mixed): 0.5%
Mean % Visual Growth Inhibition ([1]; Trial 8, 7DAA1, halauxifen-methyl 10, clopyralid-olamine 150 g ae/ha, alone or mixed, line r44): 0.0%
Mean % Visual Growth Inhibition ([1]; Trial 8, 7DAA1, halauxifen-methyl 10, clopyralid-olamine 150 g ae/ha, alone or mixed, line r45): 0.0%
Mean % Visual Growth Inhibition ([1]; Trial 8, 7DAA1, halauxifen-methyl 10, clopyralid-olamine 150 g ae/ha, alone or mixed, line r46): 1.3%
Mean % Visual Growth Inhibition ([1]; Trial 8, 7DAA1, halauxifen-methyl 10, clopyralid-olamine 150 g ae/ha, alone or mixed, line r47): 1.5%
Mean % Visual Growth Inhibition ([1]; Trial 8, 15DAA1, halauxifen-methyl 5, clopyralid-olamine 150 g ae/ha, alone or mixed): 0.0%
Mean % Visual Growth Inhibition ([1]; Trial 8, 15DAA1, halauxifen-methyl 10, clopyralid-olamine 150 g ae/ha, alone or mixed, line r49): 0.0%
Mean % Visual Growth Inhibition ([1]; Trial 8, 15DAA1, halauxifen-methyl 10, clopyralid-olamine 150 g ae/ha, alone or mixed, line r50): 0.5%
Mean % Visual Growth Inhibition ([1]; Trial 9, 6DAA1, halauxifen-methyl 5, clopyralid-olamine 150 g ae/ha, alone or mixed): 0.0%
Mean % Visual Growth Inhibition ([1]; Trial 9, 23DAA1, halauxifen-methyl 2.5, clopyralid-olamine 150 g ae/ha, alone or mixed): 0.0%
Mean % Visual Growth Inhibition ([1]; Trial 9, 23DAA1, halauxifen-methyl 5, clopyralid-olamine 150 g ae/ha, alone or mixed): 0.0%
Mean % Visual Growth Inhibition ([1]; Trial 9, 33DAA1, halauxifen-methyl 5, clopyralid-olamine 150 g ae/ha, alone or mixed): 0.0%
Mean % Visual Growth Inhibition ([1]; Trial 9, 59DAA1, halauxifen-methyl 5, clopyralid-olamine 150 g ae/ha, alone or mixed): 0.0%
Mean % Visual Growth Inhibition ([1]; Trial 10, 17DAA1, halauxifen-methyl 5, clopyralid-olamine 100 g ae/ha, alone or mixed): 0.0%
Mean % Visual Growth Inhibition ([1]; Trial 10, 17DAA1, halauxifen-methyl 5, clopyralid-olamine 150 g ae/ha, alone or mixed): 0.0%
Mean % Visual Growth Inhibition ([1]; Trial 10, 17DAA1, halauxifen-methyl 5, clopyralid-olamine 200 g ae/ha, alone or mixed): 0.0%
Mean % Visual Growth Inhibition ([1]; Trial 10, 27DAA1, halauxifen-methyl 5, clopyralid-olamine 150 g ae/ha, alone or mixed): 0.0%
Mean % Visual Growth Inhibition ([1]; Trial 10, 27DAA1, halauxifen-methyl 5, clopyralid-olamine 200 g ae/ha, alone or mixed): 1.7%
Mean % Visual Growth Inhibition ([1]; Trial 11, 7DAA1, halauxifen-methyl 5, clopyralid-olamine 150 g ae/ha, alone or mixed): 2.5%
Mean % Visual Growth Inhibition ([1]; Trial 11, 15DAA1, halauxifen-methyl 0.62, clopyralid-olamine 150 g ae/ha, alone or mixed): 3.0%
Mean % Visual Growth Inhibition ([1]; Trial 11, 15DAA1, halauxifen-methyl 1.25, clopyralid-olamine 150 g ae/ha, alone or mixed): 3.0%
Mean % Visual Growth Inhibition ([1]; Trial 12, 15DAA1, halauxifen-methyl 10, clopyralid-olamine 150 g ae/ha, alone or mixed): 0.0%
Mean % Visual Growth Inhibition ([1]; Trial 12, 27DAA1, halauxifen-methyl 5, clopyralid-olamine 150 g ae/ha, alone or mixed): 1.0%
% Visual Injury Obs ([2]; 50 g ai/ha alone): 0%
% Visual Injury Obs ([2]; 100 g ai/ha alone): 0%
% Visual Injury Obs ([2]; 200 g ai/ha alone): 0%
Mean % Visual Injury ([3]; 6DAA1, halauxifen-methyl 5, clopyralid-olamine 120 g ae/ha): 1%
Mean % Visual Injury ([3]; 7DAA1, halauxifen-methyl 5, clopyralid-olamine 120 g ae/ha): 1%
Mean % Visual Injury ([3]; 19DAA1, halauxifen-methyl 5, clopyralid-olamine 120 g ae/ha): 1%
Mean % Visual Growth Inhibition ([3]; 85DAA1, 120 g ae/ha alone): 3.8%
Mean % Visual Deformation ([3]; Trial 1, 27DAA1, halauxifen-methyl 5, clopyralid-olamine 120 g ae/ha): 23.8%
Mean % Visual Deformation ([3]; Trial 2, 6DAA1, halauxifen-methyl 5, clopyralid-olamine 120 g ae/ha): 1.0%
Mean % Visual Deformation ([3]; Trial 2, 7DAA1, halauxifen-methyl 5, clopyralid-olamine 120 g ae/ha): 1.0%
